What was measured:
human CaSR = molecular target: T1, human CaSR (Homo sapiens, UniProt P41180); test: Human CaSR Antagonist Activity (CHO cells, NFAT-Luciferase reporter); assay type: cell-based; details: CHO, 2 h, 3.3 μm test compound; CaCl2 final 1.3 mM; 100% = reference carboxamide at 10 μM; read-out: Inhibition rate (%) at 3.3 μm
T1 construct: expressed in transfected cells; host or cells: CHO cells
T1 sequence (P41180 20-1078): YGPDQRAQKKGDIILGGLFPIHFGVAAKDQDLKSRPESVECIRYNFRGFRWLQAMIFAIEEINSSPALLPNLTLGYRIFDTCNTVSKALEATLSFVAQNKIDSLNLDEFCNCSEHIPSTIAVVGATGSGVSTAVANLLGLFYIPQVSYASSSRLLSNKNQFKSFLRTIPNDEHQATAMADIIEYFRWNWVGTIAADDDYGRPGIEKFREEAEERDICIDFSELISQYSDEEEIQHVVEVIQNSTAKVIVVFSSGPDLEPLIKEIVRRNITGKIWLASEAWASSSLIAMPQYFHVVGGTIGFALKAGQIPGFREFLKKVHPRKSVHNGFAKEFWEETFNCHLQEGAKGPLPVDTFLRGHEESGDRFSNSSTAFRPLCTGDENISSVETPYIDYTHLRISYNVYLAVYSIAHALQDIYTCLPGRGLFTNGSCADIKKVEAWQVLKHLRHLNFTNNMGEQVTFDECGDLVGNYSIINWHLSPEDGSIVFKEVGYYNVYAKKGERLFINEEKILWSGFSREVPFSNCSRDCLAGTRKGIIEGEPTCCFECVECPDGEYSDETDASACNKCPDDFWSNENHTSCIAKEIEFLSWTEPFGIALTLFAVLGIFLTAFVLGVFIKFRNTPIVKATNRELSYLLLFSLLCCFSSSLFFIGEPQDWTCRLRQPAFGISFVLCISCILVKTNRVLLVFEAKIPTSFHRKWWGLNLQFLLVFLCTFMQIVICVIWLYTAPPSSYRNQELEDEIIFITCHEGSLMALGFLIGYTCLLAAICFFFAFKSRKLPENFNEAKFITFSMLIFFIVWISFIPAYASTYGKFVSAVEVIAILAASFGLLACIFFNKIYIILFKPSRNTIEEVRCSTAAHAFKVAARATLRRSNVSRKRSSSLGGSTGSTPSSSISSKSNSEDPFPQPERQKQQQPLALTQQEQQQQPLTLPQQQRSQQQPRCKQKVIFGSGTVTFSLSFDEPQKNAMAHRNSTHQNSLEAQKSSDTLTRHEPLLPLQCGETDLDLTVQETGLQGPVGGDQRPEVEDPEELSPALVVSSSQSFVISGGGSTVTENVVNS
Experimental: CaSR antagonist activity measurement was performed using Bright-Glo Luciferase assay system (Promega Corporation). CHO cells in which human CaSR and NFAT-Luciferase reporter gene were forcibly expressed were suspended in MEM alpha (Wako Pure Chemical Industries, Ltd.) containing 10% dialyzed serum (HyClone). The cells in suspension was seeded in 384-well white plate (Corning) at 10,000/20 μL/well, and cultured in an incubator of 37° C., 5% CO2 for one day. A diluent of Test compound was prepared with assay buffer (MEM alpha containing 10 mM HEPES (Life Technologies) and 10% dialysis serum). The diluent was added to the plate at 5 μL/well and allowed to stand at 37° C. for 10 minutes. Further, a diluent of 7.8 mM CaCl2 prepared with assay buffer (final concentration 1.3 mM) was added at 5 μl/well and allowed to stand in an incubator of 37° C., 5% CO2 for 2 hours. Bright-Glo reagents (Promega Corporation) were added at 10 μL/well, and the obtained mixture was stirred for 5 minutes, and then luminescence intensity was measured using Multi-label reader Envision (PerkinElmer, Inc.). The activity (%) of the test compound was calculated with the definitions in which the luminescence intensity when DMSO is added in place of the test compound is defined as 0% inhibition; and the luminescence intensity when (5R)—N-(1-ethyl-1-(4-ethylphenyl)propyl)-2,7,7-trimethyl-5-phenyl-4,5,6,7-tetrahydropyrazolo[1,5-a]Pyrimidine-3-carboxamide at final concentration of 10 μM is added is defined as 100% inhibition.

CYP3A = test: CYP Induction (CYP3A activity in cryopreserved hepatocytes, P450-Glo CYP3A4 assay); assay type: in vitro ADME; details: % of positive control (inducibility by 10 μmol/L rifampicin = 100%); hepatocytes treated 3 days
Experimental: Cryopreserved hepatocytes were thawed in a culture medium (In VitroGRO™ CP Medium, Celsis In Vitro Technologies, U.S.A.), and the resultant was added to BioCoat™ Matrigel® Matrix Thin-Layer 96 well (Becton, Dickinson and Company, U.S.A.) at a concentration of 40,000 cells/well. After culturing for 24 hours, the culture medium was removed, and replaced with an incubation medium (In VitroGRO™, HI Medium with Torpedo Antibiotic Mix, Celsis In Vitro Technologies, U.S.A.). Cells were cultured for an additional 3 days. The medium was removed on day 4, and the remained cells were treated in the induction medium containing a test compound for 3 days in the presence or absence of 10 μmol/L rifampicin. The induction medium was replaced every day. The test compound addition wells in the presence of 10 μmol/L rifampicin were used to evaluate the inhibitory effect of the test compound on the inducibility of the CYP3A activity by rifampicin. The CYP3A activity was evaluated by measuring luciferin generating amount after the addition of 2 μmol/L luciferin-IPA using IPA P450-Glo™ CYP3A4 assay systems (Promega Corporation, U.S.A.). All cultures were carried out under a humidified environment at 37° C., 5% CO2. The inducibility by rifampicin was defines as 100%, and the inducibility of the test compound (% of positive control) was calculated from the following equation: [(luciferin fluorescence intensity in the absence of rifampicin and the presence of test compound)−(luciferin fluorescence intensity in the absence of rifampicin and test compound)/(luciferin fluorescence intensity in the presence of rifampicin and the absence of test compound)−(Luciferin fluorescence intensity in the absence of rifampicin and test compound)]×100.

Structure (SMILES): CC1(C)C[C@H](c2ccccc2)Nc2c(C(=O)N3C[C@@H]4C[C@]4(c4ccc(Cl)c(Cl)c4)C3)cnn21 [Example 1, ((1S,5R)-1-(3,4-Dichlorophenyl)-3-azabicyclo[3.1.0]hex-3-yl)((5R)-7,7-dimethyl-5-phenyl-4,5,6,7-tetrahydropyrazolo[1,5-a]pyrimidin-3-yl)methanone]
- inhibition at 3.3 µM (human CaSR): 100%
- Inducibility (%) (CYP3A): 4.9%

Source: patent US10919891B2, “Heterocyclic compound” (TAKEDA PHARMACEUTICAL COMPANY LIMITED, priority 2017, dated 2021)
